Measurements published in the supplement of paper PMC6045584.
± gives the standard deviation of the averaged measurements.

Assays:
ABIRATERONE = compound: C[C@]12CC[C@H](O)CC1=CC[C@@H]1[C@@H]2CC[C@]2(C)C(c3cccnc3)=CC[C@@H]12 [ABIRATERONE]; assay: surviving fraction relative to DMSO-only wells; higher = less growth inhibition; details: exposure time: 5 days
How it was run: (§1)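 Viability values are CellTiter-Glo luminescence readings, given as surviving fraction against the median of DMSO-only wells. The readings were taken after 10 minutes at room temperature, following five days of continuous exposure to inhibitors at 0.5, 1, 5, 10, 50, 100, 500 and 1000 nM that began 24 hours after log-phase tumour cell lines were seeded at 250–500 cells per well in 384-well plates. Every line was screened three times and kept only if replicate Pearson r >0.7 and median Z' >0.3.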

MLN-4924 = compound: NS(=O)(=O)OC[C@@H]1C[C@@H](n2ccc3c(N[C@H]4CCc5ccccc54)ncnc32)C[C@@H]1O [MLN-4924]; assay: as above; details: exposure time: 5 days
How it was run: as §1

DU4475 BREAST showed a surviving fraction (ABIRATERONE; 0.5 nM) of 0.872 ± 0.039, a surviving fraction (ABIRATERONE; 1 nM) of 1.02 ± 0.19 and a surviving fraction (ABIRATERONE; 5 nM) of 0.991 ± 0.14. For the same test system, the surviving fraction (ABIRATERONE; 10 nM) was 0.983 ± 0.12, the surviving fraction (ABIRATERONE; 50 nM) was 0.989 ± 0.15 and the surviving fraction (ABIRATERONE; 100 nM) was 0.917 ± 0.32. For the same test system, the surviving fraction (ABIRATERONE; 500 nM) was 0.998 ± 0.23, the surviving fraction (ABIRATERONE; 1000 nM) was 0.938 ± 0.34 and the surviving fraction (MLN-4924; 0.5 nM) was 0.976 ± 0.098. The surviving fraction (MLN-4924; 1 nM) was 1.02 ± 0.028, the surviving fraction (MLN-4924; 5 nM) was 0.894 ± 0.049 and the surviving fraction (MLN-4924; 10 nM) was 0.683 ± 0.11. The surviving fraction (MLN-4924; 50 nM) was 0.033 ± 0.001, the surviving fraction (MLN-4924; 100 nM) was 0.0267 ± 0.0042 and the surviving fraction (MLN-4924; 500 nM) was 0.0323 ± 0.0011. It also gave a surviving fraction (MLN-4924; 1000 nM) of 0.0333 ± 0.0011.

For H23 LUNG, the surviving fraction (ABIRATERONE; 0.5 nM) was 1.07 ± 0.058, the surviving fraction (ABIRATERONE; 1 nM) was 1.05 ± 0.062 and the surviving fraction (ABIRATERONE; 5 nM) was 1.06 ± 0.056. It also gave a surviving fraction (ABIRATERONE; 10 nM) of 1.07 ± 0.049, a surviving fraction (ABIRATERONE; 50 nM) of 1.1 ± 0.063 and a surviving fraction (ABIRATERONE; 100 nM) of 1.16 ± 0.032. For the same test system, the surviving fraction (ABIRATERONE; 500 nM) was 1.17 ± 0.031, the surviving fraction (ABIRATERONE; 1000 nM) was 1.16 ± 0.072 and the surviving fraction (MLN-4924; 0.5 nM) was 0.992 ± 0.05. It also gave a surviving fraction (MLN-4924; 1 nM) of 1.01 ± 0.053, a surviving fraction (MLN-4924; 5 nM) of 1.07 ± 0.044 and a surviving fraction (MLN-4924; 10 nM) of 1.09 ± 0.049. For the same test system, the surviving fraction (MLN-4924; 50 nM) was 1.18 ± 0.083, the surviving fraction (MLN-4924; 100 nM) was 0.886 ± 0.073 and the surviving fraction (MLN-4924; 500 nM) was 0.14 ± 0.01. For the same test system, the surviving fraction (MLN-4924; 1000 nM) was 0.082 ± 0.004.

Work on HCC78 LUNG yielded a surviving fraction (ABIRATERONE; 0.5 nM) of 0.94 ± 0.12, a surviving fraction (ABIRATERONE; 1 nM) of 0.911 ± 0.058 and a surviving fraction (ABIRATERONE; 5 nM) of 1.09 ± 0.15. For the same test system, the surviving fraction (ABIRATERONE; 10 nM) was 1.06 ± 0.23, the surviving fraction (ABIRATERONE; 50 nM) was 1.12 ± 0.16 and the surviving fraction (ABIRATERONE; 100 nM) was 1.15 ± 0.25. For the same test system, the surviving fraction (ABIRATERONE; 500 nM) was 0.936 ± 0.063, the surviving fraction (ABIRATERONE; 1000 nM) was 0.823 ± 0.24 and the surviving fraction (MLN-4924; 0.5 nM) was 0.845 ± 0.11. For the same test system, the surviving fraction (MLN-4924; 1 nM) was 0.588 ± 0.064, the surviving fraction (MLN-4924; 5 nM) was 0.722 ± 0.17 and the surviving fraction (MLN-4924; 10 nM) was 0.808 ± 0.15. For the same test system, the surviving fraction (MLN-4924; 50 nM) was 0.487 ± 0.067, the surviving fraction (MLN-4924; 100 nM) was 0.27 ± 0.1 and the surviving fraction (MLN-4924; 500 nM) was 0.0393 ± 0.011. The surviving fraction (MLN-4924; 1000 nM) was 0.0343 ± 0.0078.

Work on HCC202 BREAST yielded a surviving fraction (ABIRATERONE; 0.5 nM) of 1.062 ± 0.0076, a surviving fraction (ABIRATERONE; 1 nM) of 1.28 ± 0.2 and a surviving fraction (ABIRATERONE; 5 nM) of 1.16 ± 0.15. For the same test system, the surviving fraction (ABIRATERONE; 10 nM) was 1.32 ± 0.44, the surviving fraction (ABIRATERONE; 50 nM) was 1.27 ± 0.073 and the surviving fraction (ABIRATERONE; 100 nM) was 1.23 ± 0.031. For the same test system, the surviving fraction (ABIRATERONE; 500 nM) was 0.991 ± 0.13, the surviving fraction (ABIRATERONE; 1000 nM) was 0.86 ± 0.28 and the surviving fraction (MLN-4924; 0.5 nM) was 1.14 ± 0.32. It also gave a surviving fraction (MLN-4924; 1 nM) of 1.07 ± 0.26, a surviving fraction (MLN-4924; 5 nM) of 1.24 ± 0.12 and a surviving fraction (MLN-4924; 10 nM) of 1.131 ± 0.0092. It also gave a surviving fraction (MLN-4924; 50 nM) of 0.731 ± 0.22, a surviving fraction (MLN-4924; 100 nM) of 0.557 ± 0.22 and a surviving fraction (MLN-4924; 500 nM) of 0.299 ± 0.066. It also gave a surviving fraction (MLN-4924; 1000 nM) of 0.265 ± 0.015.

Test System HCC1395 BREAST has a surviving fraction (ABIRATERONE; 0.5 nM) of 1.07 ± 0.11, a surviving fraction (ABIRATERONE; 1 nM) of 1.07 ± 0.015 and a surviving fraction (ABIRATERONE; 5 nM) of 1.14 ± 0.059. It also gave a surviving fraction (ABIRATERONE; 10 nM) of 1.13 ± 0.021, a surviving fraction (ABIRATERONE; 50 nM) of 1.08 ± 0.12 and a surviving fraction (ABIRATERONE; 100 nM) of 1.11 ± 0.13. The surviving fraction (ABIRATERONE; 500 nM) was 1.146 ± 0.0049, the surviving fraction (ABIRATERONE; 1000 nM) was 1.19 ± 0.047 and the surviving fraction (MLN-4924; 0.5 nM) was 1.07 ± 0.042. For the same test system, the surviving fraction (MLN-4924; 1 nM) was 1.13 ± 0.05, the surviving fraction (MLN-4924; 5 nM) was 1.01 ± 0.14 and the surviving fraction (MLN-4924; 10 nM) was 1.15 ± 0.14. It also gave a surviving fraction (MLN-4924; 50 nM) of 1.1 ± 0.014, a surviving fraction (MLN-4924; 100 nM) of 1.083 ± 0.008 and a surviving fraction (MLN-4924; 500 nM) of 0.989 ± 0.1. It also gave a surviving fraction (MLN-4924; 1000 nM) of 1.01 ± 0.053.

Work on HCC1806 BREAST yielded a surviving fraction (ABIRATERONE; 0.5 nM) of 1.12 ± 0.11, a surviving fraction (ABIRATERONE; 1 nM) of 1.08 ± 0.17 and a surviving fraction (ABIRATERONE; 5 nM) of 1.19 ± 0.024. The surviving fraction (ABIRATERONE; 10 nM) was 1.08 ± 0.021, the surviving fraction (ABIRATERONE; 50 nM) was 1.19 ± 0.051 and the surviving fraction (ABIRATERONE; 100 nM) was 1.2 ± 0.11. For the same test system, the surviving fraction (ABIRATERONE; 500 nM) was 1.05 ± 0.085, the surviving fraction (ABIRATERONE; 1000 nM) was 0.953 ± 0.12 and the surviving fraction (MLN-4924; 0.5 nM) was 0.949 ± 0.094. For the same test system, the surviving fraction (MLN-4924; 1 nM) was 1.02 ± 0.089, the surviving fraction (MLN-4924; 5 nM) was 0.907 ± 0.074 and the surviving fraction (MLN-4924; 10 nM) was 0.395 ± 0.02. It also gave a surviving fraction (MLN-4924; 50 nM) of 0.0957 ± 0.0076, a surviving fraction (MLN-4924; 100 nM) of 0.0527 ± 0.0076 and a surviving fraction (MLN-4924; 500 nM) of 0.031. The surviving fraction (MLN-4924; 1000 nM) was 0.029 ± 0.0017.

For HCC1954 BREAST, the surviving fraction (ABIRATERONE; 0.5 nM) was 0.838 ± 0.082, the surviving fraction (ABIRATERONE; 1 nM) was 1.01 ± 0.13 and the surviving fraction (ABIRATERONE; 5 nM) was 1.05 ± 0.088. The surviving fraction (ABIRATERONE; 10 nM) was 1.13 ± 0.12, the surviving fraction (ABIRATERONE; 50 nM) was 1.09 ± 0.23 and the surviving fraction (ABIRATERONE; 100 nM) was 1.12 ± 0.041. The surviving fraction (ABIRATERONE; 500 nM) was 1.08 ± 0.086, the surviving fraction (ABIRATERONE; 1000 nM) was 1.02 ± 0.014 and the surviving fraction (MLN-4924; 0.5 nM) was 1.12 ± 0.082. It also gave a surviving fraction (MLN-4924; 1 nM) of 1.13 ± 0.045, a surviving fraction (MLN-4924; 5 nM) of 1.09 ± 0.049 and a surviving fraction (MLN-4924; 10 nM) of 1.17 ± 0.3. For the same test system, the surviving fraction (MLN-4924; 50 nM) was 0.656 ± 0.075, the surviving fraction (MLN-4924; 100 nM) was 0.518 ± 0.021 and the surviving fraction (MLN-4924; 500 nM) was 0.1795 ± 0.0014. For the same test system, the surviving fraction (MLN-4924; 1000 nM) was 0.112 ± 0.016.

In the case of HCT15 LARGE INTESTINE, the surviving fraction (ABIRATERONE; 0.5 nM) is reported as 1.08 ± 0.027, the surviving fraction (ABIRATERONE; 1 nM) is reported as 1.12 ± 0.024 and the surviving fraction (ABIRATERONE; 5 nM) is reported as 1.1 ± 0.054. It also gave a surviving fraction (ABIRATERONE; 10 nM) of 1.1 ± 0.029, a surviving fraction (ABIRATERONE; 50 nM) of 1.11 ± 0.026 and a surviving fraction (ABIRATERONE; 100 nM) of 1.1 ± 0.0051. The surviving fraction (ABIRATERONE; 500 nM) was 1.11 ± 0.04, the surviving fraction (ABIRATERONE; 1000 nM) was 1.1 ± 0.036 and the surviving fraction (MLN-4924; 0.5 nM) was 1.06 ± 0.015. For the same test system, the surviving fraction (MLN-4924; 1 nM) was 1.05 ± 0.095, the surviving fraction (MLN-4924; 5 nM) was 1.07 ± 0.042 and the surviving fraction (MLN-4924; 10 nM) was 1.08 ± 0.065. For the same test system, the surviving fraction (MLN-4924; 50 nM) was 0.966 ± 0.11, the surviving fraction (MLN-4924; 100 nM) was 0.906 ± 0.11 and the surviving fraction (MLN-4924; 500 nM) was 0.299 ± 0.065. For the same test system, the surviving fraction (MLN-4924; 1000 nM) was 0.166 ± 0.041.
